The values that follow come from patent US20240294551A1 (AMGEN INC., priority 2022, published 2024).

Experiment [1] relates to Phosphorylation of ERK1/2 in AsPC-1 cells. As to the kind of experiment: Phospho-ERK1/2 MSD Assay. The experiment is classed as cell-based, human. Conditions: read-out: 2 h p-ERK (AsPC-1 cells), IC50. As for the experimental part: AsPC-1 (ATCC® CRL-1682™) cells were cultured in RPMI 1640 Medium (ThermoFisher Scientific 11875093) containing 10% fetal bovine serum (ThermoFisher Scientific 16000044) and 1× penicillin-streptomycin-glutamine (ThermoFisher Scientific 10378016). Sixteen hours prior to compound treatment, AsPC-1 cells were seeded in 96-well cell culture plates at a density of 25,000 cells/well and incubated at 37° C., 5% CO2. A compound dose-response titration was diluted in growth media, added to appropriate wells of a cell culture plate, and then incubated at 37° C., 5% CO2 for 2 hours. Following compound treatment, cells were washed with ice-cold Dulbecco's phosphate-buffered saline, no Ca^2+ or Mg^2+ (ThermoFisher Scientific 14190144), and then lysed in RIPA buffer (50 mM Tris-HCl pH 7.5, 1% Igepal, 0.5% sodium deoxycholate, 150 mM NaCl, and 0.5% sodium dodecyl sulfate) containing protease inhibitors (Roche 4693132001) and phosphatase inhibitors (Roche 4906837001). Phosphorylation of ERK1/2 in compound-treated lysates was assayed using Phospho-ERK1/2 Whole Cell Lysate kits (Meso Scale Discovery K151DWD) according to the manufacturer's protocol. Assay plates were read on a Meso Scale Discovery Sector Imager 6000, and data were analyzed using a 4-parameter logistic model to calculate IC50 values.

For experiment [2], the target named is His-tagged KRAS G12D protein (Homo sapiens (Human), UniProt P01116, G12D). The experiment in a line: KRAS G12D TR-FRET Assay. The experiment is classed as binding. As to conditions: read-out: KRAS G12D Binding IC50. The method, boiled down: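 Each incubation ran at room temperature: enzyme with compound for 30 minutes, peptide for one hour, and detection reagents (0.4 nM europium anti-6×His, 5 nM streptavidin-d2) for one hour more. Protein and peptide stocks were each diluted to 20 nM before addition.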
His-tagged KRAS G12D protein, sequence (P01116 other isoform, or with tags, fused parts or gaps G12D): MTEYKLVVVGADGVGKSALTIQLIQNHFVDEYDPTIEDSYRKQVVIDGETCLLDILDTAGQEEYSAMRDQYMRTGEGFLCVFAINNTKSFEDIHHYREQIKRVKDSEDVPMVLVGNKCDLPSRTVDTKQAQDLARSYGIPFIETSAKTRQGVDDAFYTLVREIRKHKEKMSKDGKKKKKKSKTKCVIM
A general note: In TR-FRET formats the signal depends on donor and acceptor labels being close together.

The target of experiment [3] is GDP-bound KRAS protein (aa 1-169), containing both G12D and C118A amino acid substitutions (Homo sapiens (Human), UniProt P01116, C118A/G12D). The experiment in a line: KRAS G12D Coupled Nucleotide Exchange Assay. The class given is biochemical. As to conditions: read-out: KRAS G12D Coupled Exchange IC50.
GDP-bound KRAS protein (aa 1-169), containing both G12D and C118A amino acid substitutions, sequence (P01116 other isoform, or with tags, fused parts or gaps G12D/C118A): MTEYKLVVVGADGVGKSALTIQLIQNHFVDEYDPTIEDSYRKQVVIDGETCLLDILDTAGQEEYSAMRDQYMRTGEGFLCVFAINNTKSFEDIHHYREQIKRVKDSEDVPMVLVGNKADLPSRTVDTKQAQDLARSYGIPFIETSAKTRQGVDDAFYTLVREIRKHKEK

Like-named read-outs stand apart in the source and are kept apart here.

As usually defined, the IC50 is the point on the concentration scale where inhibition reaches its midpoint. Take `O=C1CCCCc2c(C(F)(F)F)cc3[nH]ncc3c2-c2ncc3c(nc(OC[C@@]45CCCN4C[C@H](F)C5)nc3c2F)N2CCC[C@H](C2)O1` [Example 87, (17R)-30-fluoro-24-(((2R,7aS)-2-fluorotetrahydro-1H-pyrrolo[1,2-a]pyrrol-7a(5H)-yl)methoxy)-9-(trifluoromethyl)-16-oxa-5,6,21,23,25,29-hexaazahexacyclo[24.3.1.1~17,21~.0~2,10~.0~3,7~.0~22,27~]hentriaconta-1(30),2,4,7,9,22,24,26,28-nonaen-15-one]: the IC50 stood at 421 nM in experiment [1] (Homo sapiens, ASPC1, 2 h); 24 nM in experiment [2]; 23 nM in experiment [3].
Taken in the same sequence, the figures for `O=C1CC2CCCN(C2)c2nc(OC[C@@]34CCCN3C[C@H](F)C4)nc3c(F)c(ncc23)-c2cccc3cccc(c23)CCO1` (stereo partly drawn) [Example 88] were 1580 nM, 19 nM and 11 nM.
Taken in the same sequence, the figures for `O=C1COCCc2c(Cl)cc3[nH]ncc3c2-c2ncc3c(nc(OC[C@@]45CCCN4C[C@H](F)C5)nc3c2F)N2CCC[C@H](C2)O1` [Example 90, (17R)-9-chloro-30-fluoro-24-(((2R,7aS)-2-fluorotetrahydro-1H-pyrrolo[1,2-a]pyrrol-7a(5H)-yl)methoxy)-13,16-dioxa-5,6,21,23,25,29-hexaazahexacyclo[24.3.1.1~17,21~.0~2,10~.0~3,7~.0~22,27~]hentriaconta-1(30),2,4,7,9,22,24,26,28-nonaen-15-one] were 167 nM, 12 nM and 11 nM.
Taken in the same sequence, the figures for `Cc1cc2[nH]ncc2c2c1CCCOC(=O)O[C@@H]1CCCCN(C1)c1nc(OC[C@@H]3C[C@@H](F)CN3C)nc3c(F)c-2ncc13` [Example 92, (26R)-32-fluoro-4-(((2S,4R)-4-fluoro-1-methyl-2-pyrrolidinyl)methoxy)-18-methyl-23,25-dioxa-1,3,5,9,14,15-hexaazahexacyclo[24.4.1.1~6,10~.0~2,7~.0~11,19~.0~12,16~]dotriaconta-2,4,6,8,10(32),11,13,16,18-nonaen-24-one] were 317 nM, 13 nM and 11 nM.
In the case of `Cc1cc2[nH]ncc2c2c1/C=C/COC(=O)O[C@@H]1CCCN(C1)c1nc(OC[C@@]34CCCN3C[C@H](F)C4)nc3c(F)c-2ncc13` [Example 101, (11E,17R)-30-fluoro-24-(((2R,7aS)-2-fluorotetrahydro-1H-pyrrolo[1,2-a]pyrrol-7a(5H)-yl)methoxy)-9-methyl-14,16-dioxa-5,6,21,23,25,29-hexaazahexacyclo[24.3.1.1~17,21~.0~2,10~.0~3,7~.0~22,27~]hentriaconta-1(30),2,4,7,9,11,22,24,26,28-decaen-15-one], the IC50 in experiment [1] (Homo sapiens, ASPC1, 2 h) came out at 1340 nM; in experiment [2], 93 nM; in experiment [3] it was 70 nM.
Taken in the same sequence, the figures for `Cc1cc2[nH]ncc2c2c1CCCCOC(=O)[C@@H]1CCCN(C1)c1nc(OC[C@@]34CCCN3C[C@H](F)C4)nc3c(F)c-2ncc13` [Example 108] were 386 nM, 24 nM and 14 nM.
On to `Cc1cc2[nH]ncc2c2c1CC(C)COC(=O)O[C@@H]1CCCN(C1)c1nc(OC[C@@]34CCCN3C[C@H](F)C4)nc3c(F)c-2ncc13` (stereo partly drawn) [Example 111], for which the IC50 in experiment [1] (Homo sapiens, ASPC1, 2 h) was 187 nM; in experiment [2] it was 15 nM; in experiment [3], 11 nM.
Taken in the same sequence, the figures for `CN1CCO[C@@H](COc2nc3c4cnc(c(F)c4n2)-c2c(c(Cl)cc4[nH]ncc24)CCCOC(=O)O[C@@H]2COCCN3C2)C1` [Example 124] were 479 nM, 20 nM and 15 nM.
On the same counts, the results for `Fc1c2ncc3c(nc(OC[C@@]45CCCN4C[C@H](F)C5)nc13)N1CCC[C@@H](COCCOCc3c(Cl)cc4[nH]ncc4c3-2)C1` [Example 142] are 247 nM, 17 nM and 15 nM.
Take `Fc1c2ncc3c(nc(OC[C@@]45CCCN4C[C@H](F)C5)nc13)N1CCC[C@H](C1)Cn1cc(cn1)/C=C\c1c(Cl)cc3[nH]ncc3c1-2` [Example 147]: the IC50 in experiment [1] (Homo sapiens, ASPC1, 2 h) was determined as 298 nM; in experiment [2] it was 16 nM; in experiment [3] it was 13 nM.
Regarding `Fc1c2ncc3c(nc(OC[C@@]45CCCN4C[C@H](F)C5)nc13)N1CCO[C@@H](COCC(F)(F)CCc3c(Cl)cc4[nH]ncc4c3-2)C1` [Example 150, (17R)-9-Chloro-13,13,30-trifluoro-24-(((2R,7aS)-2-fluorotetrahydro-1H-pyrrolo[1,2-a]pyrrol-7a(5H)-yl)methoxy)-15,18-dioxa-5,6,21,23,25,29 hexaazahexacyclo[24.3.1.1˜17,21˜.0˜2,10˜.0˜3,7˜.0˜22,27˜]hentriaconta-1(30),2,4,7,9,22,24,26,28-nonaene], the IC50 in experiment [1] (Homo sapiens, ASPC1, 2 h) turned out to be 306 nM; in experiment [2], 33 nM; in experiment [3] it was 17 nM.
Take `Cc1cc2[nH]ncc2c2c1CCCn1ncc(n1)C1CCCN(C1)c1nc(OC[C@@]34CCCN3C[C@H](F)C4)nc3c(F)c-2ncc13` (stereo partly drawn) [Example 158, 31-Fluoro-25-(((2R,7aS)-2-fluorotetrahydro-1H-pyrrolo[1,2-a]pyrrol-7a(5H)-yl)methoxy)-9-methyl-5,6,14,15,22,24,26,30,33-nonaazaheptacyclo[25.3.1.1˜14,17˜.1˜18,22.0˜2,10˜.0˜3,7˜.0˜23,28˜]tritriaconta-1(31),2,4,7,9,15,17(33),23,25,27,29-undecaene]: the IC50 came to 278 nM in experiment [1] (2 h), 20 nM in experiment [2] and 6 nM in experiment [3].
For the compound `O=C1CCCCc2c(Cl)cccc2-c2ncc3c(nc(OC[C@@]45CCCN4C[C@H](F)C5)nc3c2F)N2CC[C@H]3CCN1[C@H]3C2` [Example 162, (25S,29R)-15-chloro-30-fluoro-4-(((2R,7aS)-2-fluorotetrahydro-1H-pyrrolo[1,2-a]pyrrol-7a(5H)-yl)methoxy)-1,3,5,9,22-pentaazahexacyclo[20.5.2.1~6,10~.0~2,7~.0~11,16~.0~25,29~]triaconta-2,4,6,8,10(30),11,13,15-octaen-21-one], the IC50 in experiment [1] (Homo sapiens, ASPC1, 2 h) was 1830 nM; in experiment [2], 37 nM; in experiment [3], 20 nM.
For `O=C1N[C@@H]2CN(C[C@@H]3C[C@@H]32)c2nc(OC[C@@]34CCCN3C[C@H](F)C4)nc3c(F)c(ncc23)-c2c(c(Cl)cc3[nH]ncc23)CCC[C@@H]1F` [Example 174, (23S,26S,27S,29R)-18-chloro-23,32-difluoro-4-(((2R,7aS)-2-fluorotetrahydro-1H-pyrrolo[1,2-a]pyrrol-7a(5H)-yl)methoxy)-1,3,5,9,14,15,25-heptaazaheptacyclo[24.4.1.1~6,10~.0~2,7~.0~11,19~.0~12,16~.0~27,29~]dotriaconta-2,4,6,8,10(32), 11,13,16,18-nonaen-24-one], the IC50 in experiment [1] (Homo sapiens, ASPC1, 2 h) was determined as 53.5 nM; in experiment [2] it was 5 nM; in experiment [3] it was 3 nM.
Take `O=C1OCCc2cccc3cccc(c23)-c2ncc3c(nc(OC[C@@]45CCCN4C[C@H](F)C5)nc3c2F)N2CCOC[C@H](C2)O1` [Example 201, (16S)-32-fluoro-8-(((2R,7aS)-2-fluorotetrahydro-1H-pyrrolo[1,2-a]pyrrol-7a(5H)-yl)methoxy)-14,17,19-trioxa-3,7,9,11-tetraazahexacyclo[20.7.1.1~2,6~.1~11,16~.0~5,10~.0~26,30~]dotriaconta-1(29),2(32),3,5,7,9,22,24,26(30),27-decaen-18-one]: the IC50 in experiment [1] (Homo sapiens, ASPC1, 2 h) amounted to 171 nM; in experiment [2], 9 nM; in experiment [3], 8 nM.
On the same counts, the results for `C[C@@H](Oc1nc2c3cnc(c(F)c3n1)-c1c(c(Cl)cc3[nH]ncc13)CCCOC(=O)O[C@@H]1COCCN2C1)[C@@H]1CCCN1C` [Example 203, (26S)-18-chloro-32-fluoro-4-((1R)-1-((2S)-1-methyl-2-pyrrolidinyl)ethoxy)-23,25,28-trioxa-1,3,5,9,14,15-hexaazahexacyclo[24.4.1.1~6,10~.0~2,7~.0~11,19~.0~12,16~]dotriaconta-2,4,6,8,10(32),11,13,16,18-nonaen-24-one] are 171 nM, 17 nM and 8 nM.
Regarding `C[C@H](Oc1nc2c3cnc(c(F)c3n1)-c1c(c(Cl)cc3[nH]ncc13)CCCOC(=O)O[C@@H]1COCCN2C1)[C@@H]1CCCN1C` [Example 204, (26S)-18-chloro-32-fluoro-4-((1S)-1-((2S)-1-methyl-2-pyrrolidinyl)ethoxy)-23,25,28-trioxa-1,3,5,9,14,15-hexaazahexacyclo[24.4.1.1~6,10~.0~2,7~.0~11,19~.0~12,16~]dotriaconta-2,4,6,8,10(32),11,13,16,18-nonaen-24-one], the half-inhibitory concentration (IC50) in experiment [1] (Homo sapiens, ASPC1, 2 h) is 429 nM; in experiment [2], 34 nM; in experiment [3], 16 nM.
